Patent publication EP0953355A1, “REMEDY FOR AUTOIMMUNE DISEASES” (Sankyo Company, Limited, priority 1996, dated 1997)

Key:
[1] = tested on: islet β cells; assay: Inhibitory effect on lymphocyte invasion (streptozotocin-induced autoimmunity to islet β cells); type: in vivo, DBA/2 mice; conditions: for islet cells invaded by lymphocytes in all mice: 0.1% in feed; for Degree of lymphocyte invasion 0 to 40% / Degree of lymphocyte invasion 40 to 60%: percentage of mice within this range, oral, streptozotocin 40 mg/kg i.p. for 5 days
Procedure: Streptozotocin was administered intraperitoneally for 5 days to 8-week-old DBA/2 mice at 40 mg/kg to induce autoimmunity of islet β cells. […] Mice in the control group were given only powdered feed during the same period.
(§1) Blood samples were collected from the tail vein before the start, during and on the final day of streptozotocin administration. The blood samples were centrifuged to obtain plasma, and the glucose levels of the obtained plasma were measured with a glucose analyzer (Sino-Test Co., Ltd.). In the figure, glucose levels (mg/dl) are plotted on the vertical axis, while time (days) is plotted on the horizontal axis. [drawing]
The mice used in the experiment were sacrificed following measurement of glucose levels on the final day of pioglitazone administration. The pancreas of each animal was excised and fixed with bouian solution. Thin tissue slices were prepared from the pancreas and the degree of lymphocyte invasion into islet cells was observed by a light microscope. […] Moreover, the degree of lymphocyte invasion was classified as either 0 to 40% or 40 to 60%. The number of mice classified within each range was illustrated in Table 3 as a percentage (%) relative to the total number of mice in the pioglitazone administration group and control groups.
Streptozotocin was administered intraperitoneally for 5 days to 8-week-old DBA/2 mice at 40 mg/kg to induce autoimmunity of islet β cells. […] Control mice were given only powdered feed during the same period.
as §1, with “(Sinotest).” for “(Sino-Test Co., Ltd.).”
The mice used in the experiment were sacrificed following measurement of glucose levels on the final day of drug administration. The pancreas of each animal was excised and fixed with bouian solution. Thin tissue slices were prepared from the pancreas and the degree of lymphocyte invasion into islet cells was observed by a light microscope. […] Moreover, the degree of lymphocyte invasion of each mouse was classified as either 0 to 40% or 40 to 60%.

[2] = tested on: Lewis rats; assay: Inhibitory effect on bone destruction induced by adjuvant arthritis; type: in vivo; conditions: for inhibition of bone destruction as compared with the control group / bone destruction compared with the control group: Wilcoxon test; for Bone Destruction Score (points): right hind paw, day 21, maximum score 8, groups of 5; for Bone Destruction Inhibition Rate (%): versus control group
Procedure: The inhibitory effect was determined in a similar manner to that of Winder, et al. (Arthritis Rheum., Vol. 12, p. 472, 1969). Using Lewis rats (females, age 8-10 weeks, body weights: 160-200 g, Japan Charles River) in groups of 5 each, adjuvant (heat-killed Mycobacterium butyricum)was injected intradermally into the right hind paw of each rat at 100 µg/0.05 ml/paw to induce arthritis. The rats were orally administered troglitazone at 0.2%, pioglitazone at 0.05% and BRL-49653 at 0.005%, respectively, by mixing in powdered feed until day 20 taking the day of injection of adjuvant to be day 0. Rats in a control group were given powdered feed only during the same period. The rats were sacrificed on day 21. After excising the right hind paw (the injected paw), soft X-rays were taken of each paw to observe and score the state of bone destruction. Bone destruction was scored by evaluating into 5 ranks consisting of 0, 1, 2, 3 and 4, assigning 0 points in the absence of bone destruction (normal) and increasing scores depending on the state of joint destruction, bone destruction, deformation and osteophyte formation. The worst state of such bone disorders was assigned a score of 4. The bone disorders were scored at two locations, the calcaneus and the location extending from the tarsal bones to the metatarsal bones. Thus, the score for each animal was determined by calculating the total score for the two locations and the maximum score was 8 points.
The inhibitory effect was determined according to the methods of Winder, et al. (Arthritis Rheum., Vol. 12, p. 472, 1969). Using Lewis rats (females, age 8-10 weeks, body weights: 160 to 200 g, Japan Charles River) in groups of 5 each, adjuvant (heat-killed Mycobacterium butyricum)was injected intradermally into the sole of the right hind paw of each rat at 100 µg/0.05 ml/paw to induce arthritis. The rats were orally administered Compound A at 0.1% and Compound B at 0.1%, respectively, by mixing in powdered feed until day 20 taking the day of injection of adjuvant to be day 0. Rats in a control group were given powdered feed only during the same period. The rats were sacrificed on day 21. After excising the right hind paw (the injected paw), soft X-rays were taken of each paw to observe and score the state of bone destruction. Bone destruction was scored by evaluating into 5 ranks consisting of 0, 1, 2, 3 and 4, assigning 0 points in the absence of bone destruction (normal) and increasing scores depending on the state of joint destruction, bone destruction, deformation and osteophyte formation. The worst state of bone destruction was assigned a score of 4. Bone destruction was scored at two locations, the calcaneus and the location extending from the tarsal bones to the metatarsal bones. Thus, the score for each animal was determined by calculating the total score for the two locations and the maximum score was 8 points.

[3] = tested on: ddY mice; type: in vivo; conditions: 300 mg/kg oral, three ddY mice (males), observed for 5 days
Procedure: Acute toxicity was determined in accordance with conventional methods. […] 2, 3,4 and 10, all acute toxicities of these compounds were determined to be 300 mg/kg and more after oral administration of them.

[4] = Example 4, from Fig. 3 (plasma glucose levels) and Table 4
[5] = 0.1% in F2 powdered feed (BRL-49653: 125 mg/kg/day, Compound A: 94 mg/kg/day), 31 days
[6] = Example 2, in powdered feed until day 20: troglitazone 0.2%, pioglitazone 0.05%, BRL-49653 0.005%
[7] = Example 5, 0.1% in powdered feed until day 20
[8] = 0.2% in F2 powdered feed (236 mg/kg/day), 38 days
[9] = 0.2% in F2 powdered feed (240 mg/kg/day), 38 days

Structure (SMILES): CN(CCOc1ccc(CC2SC(=O)NC2=O)cc1)c1ccccn1 (centres unmarked) [BRL-49653, 5-{4-[2-(N-methyl-N-(2-pyridyl)amino)ethoxy]benzyl}thiazolidine-2,4-dione]
- islet cells invaded by lymphocytes in all mice ([1]; Example 4, 31 days): less than 40%
- onset of autoimmune disease [1, 4]: suppresses the onset of autoimmune disease
- Degree of lymphocyte invasion 0 to 40% [1, 5]: 100%
- Degree of lymphocyte invasion 40 to 60% [1, 5]: 0%
- inhibition of bone destruction as compared with the control group ([2]; Example 2): exhibited inhibition of bone destruction
- Bone Destruction Score (points) [2, 6]: 4.8 ± 1.2 points
- Bone Destruction Inhibition Rate (%) [2, 6]: 35.1%

Structure (SMILES): CC(=NOCCOc1ccc(CC2SC(=O)NC2=O)cc1)c1ccc(-c2ccccn2)cc1 (centres unmarked) [Compound A, 5-[4-[2-[[[1-[4-(2-pyridyl)phenyl]ethylidene]amino]oxy]ethoxy]benzyl]thiazolidine-2,4-dione]
- islet cells invaded by lymphocytes in all mice ([1]; Example 4, 31 days): less than 40%
- onset of autoimmune disease [1, 4]: suppresses the onset of autoimmune disease
- Degree of lymphocyte invasion 0 to 40% [1, 5]: 100%
- Degree of lymphocyte invasion 40 to 60% [1, 5]: 0%
- Bone Destruction Score (points) [2, 7]: 6.6 ± 0.7 points
- Bone Destruction Inhibition Rate (%) [2, 7]: 17.5%
- bone destruction compared with the control group ([2]; Example 5): tended to be inhibited

Structure (SMILES): COc1ccc2nc(COc3ccc(CC4SC(=O)NC4=O)cc3)n(C)c2c1 (centres unmarked) [Compound B, 5-[4-(6-methoxy-1-methylbenzimidazol-2-ylmethoxy)benzyl]thiazolidine-2,4-dione]
- Bone Destruction Score (points) [2, 7]: 6.6 ± 0.8 points
- Bone Destruction Inhibition Rate (%) [2, 7]: 17.5%
- bone destruction compared with the control group ([2]; Example 5): tended to be inhibited

Structure (SMILES): CCc1ccc(CCOc2ccc(CC3SC(=O)NC3=O)cc2)nc1 (centres unmarked) [Pioglitazone, 5-{4-[2-(5-ethyl-2-pyridyl)ethoxy]benzyl}-2,4-thiazolidinedione]
- degree of lymphocyte invasion into islet cells in all mice ([1]; Example 3, 0.2% in feed (236 mg/kg/day), 38 days): ≤ 40%
- onset of autoimmune disease ([1]; Example 3, on the basis of Fig. 2 (plasma glucose levels) and Table 3): suppresses the onset of autoimmune disease
- Degree of lymphocyte invasion 0 to 40% [1, 8]: 100%
- Degree of lymphocyte invasion 40 to 60% [1, 8]: 0%
- inhibition of bone destruction as compared with the control group ([2]; Example 2): exhibited inhibition of bone destruction
- Bone Destruction Score (points) [2, 6]: 4.4 ± 1.0 points
- Bone Destruction Inhibition Rate (%) [2, 6]: 40.5%

Structure (SMILES): Cc1c(C)c2c(c(C)c1O)CCC(C)(COc1ccc(CC3SC(=O)NC3=O)cc1)O2 (centres unmarked) [Troglitazone, 5-[4-(6-hydroxy-2,5,7,8-tetramethylchroman-2-ylmethoxy)benzyl]thiazolidine-2,4-dione]
- degree of lymphocyte invasion into islet cells in all mice ([1]; Example 1, 0.2% in feed (240 mg/kg/day), 38 days): ≤ 40%
- onset of autoimmune disease ([1]; Example 1, on the basis of Fig. 1 (plasma glucose levels) and Table 1): suppresses the onset of autoimmune disease
- Degree of lymphocyte invasion 0 to 40% [1, 9]: 100%
- Degree of lymphocyte invasion 40 to 60% [1, 9]: 0%
- inhibition of bone destruction as compared with the control group ([2]; Example 2): significant inhibition of bone destruction
- Bone Destruction Score (points) [2, 6]: 5.4 ± 0.2 points
- Bone Destruction Inhibition Rate (%) [2, 6]: 27.0%
- survival [3]: All animals survived
